# Literature values, collected in US20110223244A1, “ALCOHOL RESISTANT ENTERIC PHARMACEUTICAL COMPOSITIONS” (priority 2010, published 2011).
# Where a name gives a salt, the structure may show the parent alone.
# Settings: yields 1-(2-thienyl)carbinol, naphthol and substituted naphthols
smiles,measurement,value
CNCC[C@H](Oc1cccc2ccccc12)c1cccs1 [duloxetine HCl],stability in aqueous HCl,rapidly undergoes solvolysis and rearrangement
